Format in all cases: in vivo
For one series, the system named is Scirpus juncoides. Kind of series: Paddy herbicidal activity test. The settings on record: irrigated pot, treated at 3.5 leaf stage of Echinochloa crus-galli, 30 days at 30° C. Here is the method: (§1) Rice paddy soil was filled into a 1/10000 are pot followed by the addition of suitable amounts of water and chemical fertilizer, kneading, seeding with Echinochloa crus-galli, Monochoria vaginalis and Scirpus juncoides and maintaining in an irrigated state at a water depth of 3 cm. Wettable powders of Target Compound (I) shown in Table 1 prepared in compliance with the preparation examples were diluted with a suitable amount of water, rice plants in the 2.0 leaf stage were transplanted during 3.5 leaf stage of Echinochloa crus-galli, and treated by dropping in chemical in the prescribed amount per 10 are using a pipette. After treating for 30 days in a glass greenhouse at an average atmospheric temperature of 30° C., the herbicidal efficacy thereof was investigated. Evaluation of herbicidal efficacy was carried out by comparing growth inhibition rate (%) with an untreated group, while evaluation of phytotoxicity was carried out by comparing growth inhibition rate (%) with the state of a complete eradication group, and were evaluated at 11 levels indicated below.

In another series the test system is Monochoria vaginalis. Briefly: Paddy herbicidal activity test. The settings on record: irrigated pot, treated at 3.5 leaf stage of Echinochloa crus-galli, 30 days at 30° C. Here is the method:
as §1

A further series deals with Echinochloa crus-galli. Kind of series: Paddy herbicidal activity test. The settings on record: irrigated pot, treated at 3.5 leaf stage of Echinochloa crus-galli, 30 days at 30° C. How it is done:
as §1

A further series deals with Galinsoga parviflora. Kind of series: Weed foliar treatment test (Test 4, 4.0 to 5.0 leaf stage). The settings on record: 10 g a.i./10 a; foliar spray at 4.0 to 5.0 leaf stage of Digitaria ciliaris (plant height 10 cm to 15 cm); 20 days at 25° C. How it is done:
(§2) Field soil was filled into a 1/4500 are pot followed by seeding with Digitaria ciliaris and Galinsoga parviflora, covering with soil and cultivating in a glass greenhouse at an average atmospheric temperature of 25° C. Wettable powders of Target Compound (I) shown in Table 1 prepared in compliance with the preparation examples were diluted with water to the prescribed amount of chemical and uniformly sprayed onto the weeds using 100 liters of sprayed water per 10 are when Digitaria ciliaris had grown to the 4.0 to 5.0 leaf stage (plant height: 10 cm to 15 cm). After treating for 20 days in a glass greenhouse at an average atmospheric temperature of 25° C., the herbicidal efficacy thereof was investigated. Evaluation of herbicidal efficacy was carried out in the same manner as the above-mentioned Test Example 1.

For series [1], the system named is Digitaria ciliaris. The series is described as above. The settings on record: 10 g a.i./10 a; foliar spray at 4.0 to 5.0 leaf stage of Digitaria ciliaris (plant height 10 cm to 15 cm); 20 days at 25° C. How it is done:
as §2

Series [2] concerns Chenopodium album. Kind of series: Farming soil treatment test. The settings on record: soil surface spray prior to weed growth, 30 days at 30° C. How it is done:
(§3) Field soil was filled into a 1/6000 are pot followed by seeding with Digitaria ciliaris, Chenopodium album and Amaranthus retroflexus and covering with soil. Wettable powders of compounds of formula (I) shown in Table 1 prepared in compliance with the preparation examples were diluted with water to the prescribed amount of chemical and uniformly sprayed onto each soil surface layer using 100 liters of sprayed water per 10 are prior to weed growth following seeding. After treating for 30 days in a glass greenhouse at an average atmospheric temperature of 30° C., the herbicidal efficacy thereof was investigated. Evaluation of herbicidal efficacy was carried out in the same manner as the above-mentioned Test Example 1.

Series [3] deals with Digitaria ciliaris. Briefly: Farming soil treatment test. The settings on record: soil surface spray prior to weed growth, 30 days at 30° C. Here is the method:
as §3

In series [4] the test system is Amaranthus retroflexus. Kind of series: Farming soil treatment test. The settings on record: soil surface spray prior to weed growth, 30 days at 30° C. How it is done:
as §3

The test system of a further series is Oryza sativa. Kind of series: Paddy herbicidal activity test, phytotoxicity to transplanted rice. The settings on record: rice transplanted at 2.0 leaf stage, 30 days at 30° C. How it is done:
as §1

For series [5], the system named is Chenopodium album. Briefly: Weed foliar treatment test (Test 3, 1.0 to 2.0 leaf stage). The settings on record: foliar spray at 1.0 to 2.0 leaf stage of Digitaria ciliaris, 3 weeks at 25° C. Here is the method:
(§4) Soil was filled into a 1/6000 are pot followed by seeding with Digitaria ciliaris, Chenopodium album and Amaranthus retroflexus, covering with soil, and cultivating in a glass greenhouse at an average atmospheric temperature of 25° C. Wettable powders of Target Compound (I) shown in Table 1 prepared in compliance with the preparation examples were diluted with water to the prescribed amount of chemical and uniformly sprayed onto the weeds using 150 liters of sprayed water per 10 are when Digitaria ciliaris had grown to the 1.0 to 2.0 leaf stage. After treating for 3 weeks in a glass greenhouse at an average atmospheric temperature of 25° C., the herbicidal efficacy thereof was investigated. Evaluation of herbicidal efficacy was carried out in the same manner as the above-mentioned Test Example 1.

In series [6] the test system is Digitaria ciliaris. Described as above. The settings on record: foliar spray at 1.0 to 2.0 leaf stage of Digitaria ciliaris, 3 weeks at 25° C. Here is the method:
as §4

Series [7] concerns Amaranthus retroflexus. Described as above. The settings on record: foliar spray at 1.0 to 2.0 leaf stage of Digitaria ciliaris, 3 weeks at 25° C. How it is done:
as §4

For the compound `N#Cc1cnn(-c2nn3c(c2Cl)CCCC3)c1NC(=O)CCc1ccccc1` [Compound 19], the “herbicidal efficacy, Scirpus juncoides” value with Scirpus juncoides (1 g a.i./10 a) and in the series on Scirpus juncoides (5 g a.i./10 a) was 10 (10: 100%) throughout. In addition, the “herbicidal efficacy, Monochoria vaginalis” value in the series on Monochoria vaginalis (1 g a.i./10 a) and in the series with Monochoria vaginalis (5 g a.i./10 a) was 10 (10: 100%) each time. Moreover, the “herbicidal efficacy, Echinochloa crus-galli” value is 9 (9: 90% to less than 100%) in the series on Echinochloa crus-galli (1 g a.i./10 a) and 10 (10: 100%) with Echinochloa crus-galli (5 g a.i./10 a). For the same compound, the “herbicidal efficacy, Galinsoga parviflora” value in the series with Galinsoga parviflora was 10 (10: 100%). The “herbicidal efficacy, Digitaria ciliaris” value with Digitaria ciliaris [1], in the series with Digitaria ciliaris [3] (5 g a.i./10 a), in the series on Digitaria ciliaris [3] (10 g a.i./10 a), with Digitaria ciliaris [6] (5 g a.i./10 a) and in the series on Digitaria ciliaris [6] (10 g a.i./10 a) was 10 (10: 100%) in each case. Moreover, the “herbicidal efficacy, Chenopodium album” value in the series on Chenopodium album [2] (5 g a.i./10 a), in the series on Chenopodium album [2] (10 g a.i./10 a), in the series with Chenopodium album [5] (5 g a.i./10 a) and with Chenopodium album [5] (10 g a.i./10 a) was 10 (10: 100%) in each case. Also, the “herbicidal efficacy, Amaranthus retroflexus” value in the series on Amaranthus retroflexus [4] (5 g a.i./10 a), with Amaranthus retroflexus [4] (10 g a.i./10 a), in the series with Amaranthus retroflexus [7] (5 g a.i./10 a) and with Amaranthus retroflexus [7] (10 g a.i./10 a) was 10 (10: 100%) each time. The results for the “phytotoxicity, Oryza sativa” value in the series with Oryza sativa (1 g a.i./10 a) and in the series with Oryza sativa (5 g a.i./10 a) were 0 (0 (exponent): 0% to less than 10% (growth inhibition rate)) and 1 (1: 10% to less than 20%), respectively.
Consider `O=C(Nc1c([N+](=O)[O-])cnn1-c1nn2c(c1Cl)CCCC2)c1ccccc1` [Control agent 2.19, reference compound], for which the “herbicidal efficacy, Scirpus juncoides” value in the series with Scirpus juncoides (1 g a.i./10 a) is reported as 1 (1: 10% to less than 20%); in the series with Scirpus juncoides (5 g a.i./10 a), 2 (2: 20% to less than 30%). Moreover, the “herbicidal efficacy, Monochoria vaginalis” value in the series with Monochoria vaginalis (1 g a.i./10 a) and in the series with Monochoria vaginalis (5 g a.i./10 a) was 1 (1: 10% to less than 20%) in each case. The “herbicidal efficacy, Echinochloa crus-galli” value in the series with Echinochloa crus-galli (1 g a.i./10 a) is 3 (3: 30% to less than 40%); in the series on Echinochloa crus-galli (5 g a.i./10 a), 4 (4: 40% to less than 50%). Also, the “herbicidal efficacy, Galinsoga parviflora” value in the series on Galinsoga parviflora is 3 (3: 30% to less than 40%). The “herbicidal efficacy, Digitaria ciliaris” value is reported as 1 (1: 10% to less than 20%) with Digitaria ciliaris [1]; 0 (0 (exponent): 0% to less than 10% (growth inhibition rate)) in the series on Digitaria ciliaris [3] (5 g a.i./10 a); 2 (2: 20% to less than 30%) in the series on Digitaria ciliaris [3] (10 g a.i./10 a); 1 (1: 10% to less than 20%) with Digitaria ciliaris [6] (5 g a.i./10 a); 2 (2: 20% to less than 30%) in the series with Digitaria ciliaris [6] (10 g a.i./10 a). The “herbicidal efficacy, Chenopodium album” value is listed as 3 (3: 30% to less than 40%) in the series on Chenopodium album [2] (5 g a.i./10 a), 4 (4: 40% to less than 50%) in the series on Chenopodium album [2] (10 g a.i./10 a), 4 (4: 40% to less than 50%) in the series with Chenopodium album [5] (5 g a.i./10 a) and 5 (5: 50% to less than 60%) in the series with Chenopodium album [5] (10 g a.i./10 a). The “herbicidal efficacy, Amaranthus retroflexus” value in the series on Amaranthus retroflexus [4] (5 g a.i./10 a) was 1 (1: 10% to less than 20%); in the series on Amaranthus retroflexus [4] (10 g a.i./10 a), 3 (3: 30% to less than 40%); in the series on Amaranthus retroflexus [7] (5 g a.i./10 a), 4 (4: 40% to less than 50%); in the series on Amaranthus retroflexus [7] (10 g a.i./10 a), 4 (4: 40% to less than 50%). In addition, the “phytotoxicity, Oryza sativa” value in the series on Oryza sativa (1 g a.i./10 a) and in the series with Oryza sativa (5 g a.i./10 a) was 1 (1: 10% to less than 20%) throughout.
On to `N#Cc1cnn(-c2nn3c(c2Cl)CCCC3)c1NC(=O)c1ccccc1` [Control agent 4.192, reference compound], for which the results for the “herbicidal efficacy, Scirpus juncoides” value in the series on Scirpus juncoides (1 g a.i./10 a) and in the series on Scirpus juncoides (5 g a.i./10 a) were 3 (3: 30% to less than 40%) and 4 (4: 40% to less than 50%), respectively. Moreover, the “herbicidal efficacy, Monochoria vaginalis” value in the series with Monochoria vaginalis (1 g a.i./10 a) is 1 (1: 10% to less than 20%); in the series with Monochoria vaginalis (5 g a.i./10 a) it was 2 (2: 20% to less than 30%). Besides, the “herbicidal efficacy, Echinochloa crus-galli” value in the series on Echinochloa crus-galli (1 g a.i./10 a) and in the series with Echinochloa crus-galli (5 g a.i./10 a) was 4 (4: 40% to less than 50%) each time. For the same compound, the “herbicidal efficacy, Galinsoga parviflora” value with Galinsoga parviflora is recorded as 2 (2: 20% to less than 30%). Besides, the “herbicidal efficacy, Digitaria ciliaris” value is 0 (0 (exponent): 0% to less than 10% (growth inhibition rate)) in the series with Digitaria ciliaris [1]; 0 (0 (exponent): 0% to less than 10% (growth inhibition rate)) in the series with Digitaria ciliaris [3] (5 g a.i./10 a); 2 (2: 20% to less than 30%) with Digitaria ciliaris [3] (10 g a.i./10 a); 1 (1: 10% to less than 20%) in the series with Digitaria ciliaris [6] (5 g a.i./10 a); 2 (2: 20% to less than 30%) in the series on Digitaria ciliaris [6] (10 g a.i./10 a). For the same compound, the “herbicidal efficacy, Chenopodium album” value in the series with Chenopodium album [2] (5 g a.i./10 a) is recorded as 2 (2: 20% to less than 30%); in the series on Chenopodium album [2] (10 g a.i./10 a) it was 3 (3: 30% to less than 40%); in the series on Chenopodium album [5] (5 g a.i./10 a), 4 (4: 40% to less than 50%); in the series with Chenopodium album [5] (10 g a.i./10 a), 5 (5: 50% to less than 60%). Besides, the “herbicidal efficacy, Amaranthus retroflexus” value with Amaranthus retroflexus [4] (5 g a.i./10 a) is reported as 0 (0 (exponent): 0% to less than 10% (growth inhibition rate)); in the series with Amaranthus retroflexus [4] (10 g a.i./10 a), 1 (1: 10% to less than 20%); with Amaranthus retroflexus [7] (5 g a.i./10 a) it was 3 (3: 30% to less than 40%); with Amaranthus retroflexus [7] (10 g a.i./10 a) it was 4 (4: 40% to less than 50%). For the same compound, the “phytotoxicity, Oryza sativa” value in the series on Oryza sativa (1 g a.i./10 a) and with Oryza sativa (5 g a.i./10 a) was 1 (1: 10% to less than 20%) throughout.

The values are drawn from patent US10165776B2, “Substituted pyrazolylpyrazole derivative and use of same as herbicide” (KYOYU AGRI CO., LTD., priority 2015, dated 2019).
